# Laboratory results published in article PMC3578765 (PLoS Neglected Tropical Diseases, 2013).
# Entries after “also recorded” stand apart in the source; their conditions may differ. Like-named read-outs stand apart in the source and are kept apart here.
# Assays:
# [1] = compound toxicity, resazurin reduction assay in uninfected Huh-7.5; assay type: cell-based; details: human, uninfected Huh-7.5 cells, Huh-7.5 without viral infection, 10-pt DRC
# Method: The hits identified from the primary screening were also tested at 10 µM against CHIKV-118-GFP infection in HuH-7 cells and evaluated by resazurin reduction assay (RRA). Resazurin (7-Hydroxy-3H-phenoxazin-3-one 10-oxide) is reduced to the red fluorescent resorufin by redox enzymes produced by viable cells, and is a good indication of metabolic capacity, and by extension cell viability. The amount of converted resorufin was measured as relative fluorescence readout (RFU) at excitation/emission of 531/572 nm using a fluorescence spectrophotometer (Victor^3 V Spectrophotometer, Perkin Elmer, USA). Briefly, cells were inoculated with CHIKV-118-GFP at an M.O.I. of 0.5 and seeded in 384-well plates containing reference and primary hit compounds and incubated under humidified conditions for 72 hrs at 37°C. Resazurin solution was added to a final concentration of 10 µM and further incubated for another 12 hrs prior to measurement of RFU. The percent activity of the compounds, reflected by the percent cell viability, was quantified by normalizing against the RFUs of MOCK-infected cells and CHIKV-118-GFP-infected cells. Compounds resulting in normalized RFU ≥70% were considered as positive hits for anti-CHIKV activity.
# To confirm the compound activity against dengue viruses, the selected hits from the primary screening were tested in a 10-pt. DRC (2-fold serial dilution from 50 µM) using the same assay described for the dengue HT/HCA. Each concentration of the hit compounds was tested in duplicate wells. Data generated from image analysis of the 10-pt. DRC was plotted and analyzed using the non-linear regression formula: log (inhibitor) vs. response – […] (4 parameters) in GraphPad Prism 5.04. […] Compound toxicity was determined by testing the hit compounds in a 10-pt. DRC against Huh-7.5 in the absence of viral infection and measuring the cell viability using resazurin reduction assay as described above. […] Confirmed hits were selected based on their Selectivity Index (SI), a dimensionless value that indicates the magnitude between cytotoxic concentration and effective concentration, and is calculated as: SI = CC50/EC50.
# [2] = tested on: DENV3 (BR DEN3 290-02) infection in Huh-7.5; assay: image-based dengue HT/HCA, 10-pt dose-response hit confirmation, DENV3; assay type: cell-based; details: Dengue virus, DENV3, Huh7.5; Huh-7.5, M.O.I. 0.5, 96 hrs; read-out: EC50 DENV3
# Method: (§1) An immunofluorescence assay (IFA) used to detect dengue infection was optimized for the dengue HT/HCA. Briefly, cells were fixed with 4% (w/v) paraformaldehyde (PFA) for 20 min at room temperature (Rm T). PFA-fixed cells were treated with 0.25% (v/v) Triton-X for 20 min at Rm T. DENV-infected cells were detected by probing with 4G2 mAb prepared in blocking buffer: DPBS containing 5% FBS for 30 min at 37°C, followed by AlexaFluor-conjugated goat anti-mouse IgG (H+L) (Invitrogen Molecular Probes, USA) prepared in blocking buffer for 30 min at 37°C. Cell nuclei counterstained with 5 µg/mL 4′,6-diamidino-2-phenylindole (DAPI, Sigma-Aldrich, USA). Two washing cycles of DPBS was done after each step of the IFA. After the final washing, digital images were acquired using a high-throughput confocal fluorescence imaging system (Evotec Technologies High-Throughput Cell Analyzer Opera, Perkin Elmer, USA). The digital images were taken from 3 different fields of each well at 20× magnification.
# (§2) Acquired images were analyzed using our in-house developed image-mining platform (IM). This platform is designed to do high-content screening and directly access the database of images that were sequentially analyzed with specially designed algorithms developed as a customized plug-in to the IM platform. The results of all the analyses were stored in a centralized database. […] One channel (DAPI-channel) captures the signal emitted by DAPI-stained nuclei at 450 nm, while the other channel (A488-channel) captures the signal emitted by the AlexaFluor 488 dye bound to the dengue E protein-antibody complexes confined in the cytoplasm of dengue-infected cells at 540 nm. To define the percentage of dengue-infected cells and, conversely the non-infected cells, a modified watershed method was applied. Compared to the original watershed algorithm that uses the morphological gradient image, a weighted gradient image is used for the topographic surface, whose weights are defined as the ridge values computed from the eigen values of the original image. The percentage of non-infected cells, which is also defined as the percent inhibition or percent activity, is derived by using the formula: [1−(A488-positive cells/total cells)]×100%.
# (§3) The BioFocus kinase inhibitor library were screened against DENV1, DEN2, DENV3 and DENV4 at 10 µM in 0.5% (v/v) DMSO. MOCK-infected Huh-7.5 and IFN-α2A (500 U/mL) were used as positive controls, and the 0.5% DMSO vehicle was used as negative control. Four sets of 15 384-well plates (13 plates designated for test compounds and 2 plates designated for DMSO vehicle control) were used for the primary screening of the BioFocus kinase inhibitor library against each dengue serotype. Each of the 4,000 compounds in the library was tested in single wells. For data normalization and quality control of the screening, each test compound plate contained 16 replicates of the positive and negative controls. After dispensing the test compounds IFN-α2A and DMSO vehicle in the 384-well plates, Huh-7.5 was mixed with DENV1, DENV2, DENV3, or DENV4 to achieve a M.O.I. of 0.5 and dispensed at 5×10^3 cells/well using the Thermo Scientific WellMate automated liquid dispenser. For the MOCK-infected Huh-7.5, the cells were mixed with VM and dispensed under the same conditions as previously stated. Virus infection in the presence of the compounds proceeded at 37°C, 5% CO2 for 96 hrs. Compound activity based on percent inhibition and cell toxicity was assessed by IFA and IM analysis as described above. Scatter-plot distribution of the entire screening was generated using TIBCO Spotfire 4.5.0 (TIBCO Software Inc., Somerville, MA).
# (§4) The calculated activity was normalized to a percent inhibition (PI) based on the MOCK-infected cells (100% activity, or zero infection) and dengue-infected cells (0% activity, or maximum measured infection percentage) controls according to the formula: [drawing 1] where: PImeasured - percent inhibition of test compound […]
# [3] = tested on: DENV1 (Den1 BR/90) infection in Huh-7.5; assay: image-based dengue HT/HCA, 10-pt dose-response hit confirmation, DENV1; assay type: cell-based; details: Dengue virus, read-out: EC50 DENV1
# Method: as §1, §2, §3, §4
# [4] = tested on: DENV2 (BR DEN2 01-01) infection in Huh-7.5; assay: image-based dengue HT/HCA, 10-pt dose-response hit confirmation, DENV2; assay type: cell-based; details: Dengue virus, DENV2, Huh7.5; Huh-7.5, M.O.I. 0.5, 96 hrs; read-out: EC50 DENV2
# Method: as §1, §2, §3, §4
# [5] = tested on: DENV1, DENV2, DENV3 and DENV4 infection in Huh-7.5; assay: image-based dengue HT/HCA, all four serotypes (primary screening and overall activity); assay type: cell-based, Dengue virus
# Method: as §1
# Acquired images were analyzed using our in-house developed image-mining platform (IM). This platform is designed to do high-content screening and directly access the database of images that were sequentially analyzed with specially designed algorithms developed as a customized plug-in to the IM platform. The results of all the analyses were stored in a centralized database. […]
# The BioFocus kinase inhibitor library were screened against DENV1, DEN2, DENV3 and DENV4 at 10 µM in 0.5% (v/v) DMSO. […] Compound activity based on percent inhibition and cell toxicity was assessed by IFA and IM analysis as described above. […]
# as §4
# [6] = tested on: DENV4 (DEN4 TVP-360) infection in Huh-7.5; assay: image-based dengue HT/HCA, 10-pt dose-response hit confirmation, DENV4; assay type: cell-based; details: Dengue virus, DENV4, Huh7.5; Huh-7.5, M.O.I. 0.5, 96 hrs; read-out: EC50 DENV4
# Method: as §1, §2, §3, §4
# [7] = tested on: DENV1, DENV2, DENV3 and DENV4 in Huh-7.5; assay: plaque reduction assay; assay type: cell-based, Dengue virus; details: 25 µM, Huh-7.5, 30 pfu per well, 7 days
# Method: Figure 5 Plaque reduction assay. Huh-7.5 cells grown in 24-well tissue culture plate were inoculated with 30 pfu DENV1, DENV2, DENV3 and DENV4 per well and incubated for 7 days in the presence of compound CND1203 at various concentrations. MOCK-infected wells were inoculated with VM only.
# [8] = tested on: dengue virus infection (M.O.I. 5) in Huh-7.5; assay: time-of-addition assay; assay type: cell-based; details: 25 µM added at −2, 0, 0.5, 1, 2, 4 hpi, M.O.I. 5, data not shown
# Method: Time-of-addition assay, a strategy to determine the stage of inhibition during the viral infection cycle, has been used to characterize the mode of action of some inhibitors of dengue viral entry (NITD Compound 6), viral replication (NITD-982) and early translation (NITD-2636), [47], [53]. The inhibitor is added at different time points during viral infection and monitored for expression of the viral proteins, replication of the genome or production of infectious progeny virions. […] Compound CND1203 was used for the time-of-addition assay, adding 25 µM at different time points (−2 hpi, 0 hpi, 0.5 hpi, 1 hpi, 2 hpi, 4 hpi) of the dengue virus infection (M.O.I. 5) in Huh-7.5. […] Aminothiazole-based compounds have previously been implicated in the inhibition of HCV replication by binding to an allosteric site on the viral polymerase. However, the structure of these active anti-HCV compounds differ from the 2-aminothiazole hit compounds reported in this study in terms of the substitutions on the scaffold. As a consequence, it is unlikely that our hit compounds interact with the viral polymerase.
# in vitro = details: human
# Method: Acquired images were analyzed using our in-house developed image-mining platform (IM). This platform is designed to do high-content screening and directly access the database of images that were sequentially analyzed with specially designed algorithms developed as a customized plug-in to the IM platform. The results of all the analyses were stored in a centralized database. […] To define the percentage of dengue-infected cells and, conversely the non-infected cells, a modified watershed method was applied. Compared to the original watershed algorithm that uses the morphological gradient image, a weighted gradient image is used for the topographic surface, whose weights are defined as the ridge values computed from the eigen values of the original image. The percentage of non-infected cells, which is also defined as the percent inhibition or percent activity, is derived by using the formula: [1−(A488-positive cells/total cells)]×100%.
# In both validation experiments, Huh-7.5 was mixed with DENV1, DENV2, DENV3 or DENV4 at a M.O.I. of 0.5 or VM only for MOCK-infection and dispensed in designated wells using the Thermo Scientific WellMate automated liquid dispenser. For the first validation experiment, the statistical reliability of the dengue HT/HCA was determined by calculating the Z'-factor for the percent infection or percent inhibition. Briefly, the Z'-factor of a defined parameter is calculated using the formula: 1−[(3σp+3σn)/(|μp−μn|)], where the μp, μn, σp and σn are the means (μ) and standard deviations (σ) of the positive (p) and negative (n) controls. For the second validation experiment, the reference compounds were prepared in 2-fold serial dilutions and dispensed in duplicate wells in the 384-well plate, followed by the Huh-7.5 and DENV mixture (M.O.I. 0.5). Percent infection, percent inhibition, and percent cell number were determined using the customized IM platform plug-in. Scatter-plot distribution was generated using TIBCO Spotfire 4.5.0 (TIBCO Software Inc., Somerville, MA). […] The top and bottom values of the reference compounds were unconstrained when the curve fittings of the 10-pt. DRCs were generated.
# Similarly, the percent cell number was normalized based on the measured cell number in MOCK-infected (100% cell number) controls according to the formula: % cell number = (Cmeasured/μCMOCK-infect)×100%, where Cmeasured is the measured cell number in the test well and μCMOCK-infect is the average cell number in the MOCK-infected controls. The statistical validity of the dengue high-throughput screening was determined by calculating for the Z'-factor using the 0.5% DMSO-treatment and MOCK-infected Huh-7.5 as negative and positive controls, respectively. In addition, other parameters, including DRC of a reference compound, were used to evaluate the assay performance.
# [9] = tested on: BR DEN2 01-01 infection of Huh-7.5; assay: assay validation with reference compounds, 10-pt DRC of percent infection; assay type: cell-based, Dengue virus; details: Dengue virus, Huh7.5; percent infection normalized against DENV2-infected Huh-7.5, M.O.I. 0.5; read-out: IC50
# Method: as §1, §2
# In both validation experiments, Huh-7.5 was mixed with DENV1, DENV2, DENV3 or DENV4 at a M.O.I. of 0.5 or VM only for MOCK-infection and dispensed in designated wells using the Thermo Scientific WellMate automated liquid dispenser. For the first validation experiment, the statistical reliability of the dengue HT/HCA was determined by calculating the Z'-factor for the percent infection or percent inhibition. Briefly, the Z'-factor of a defined parameter is calculated using the formula: 1−[(3σp+3σn)/(|μp−μn|)], where the μp, μn, σp and σn are the means (μ) and standard deviations (σ) of the positive (p) and negative (n) controls. For the second validation experiment, the reference compounds were prepared in 2-fold serial dilutions and dispensed in duplicate wells in the 384-well plate, followed by the Huh-7.5 and DENV mixture (M.O.I. 0.5). Percent infection, percent inhibition, and percent cell number were determined using the customized IM platform plug-in. Scatter-plot distribution was generated using TIBCO Spotfire 4.5.0 (TIBCO Software Inc., Somerville, MA). The ten-point dose-response curves (10-pt DRCs) were plotted using the non-linear regression formula: log (inhibitor) vs. response – variable slope (4 parameters), available in GraphPad Prism 5.04 (GraphPad Software Inc., San Diego, CA). The top and bottom values of the reference compounds were unconstrained when the curve fittings of the 10-pt. DRCs were generated.
# [10] = DENV1, Huh7.5, Huh-7.5, M.O.I. 0.5, 96 hrs
Structure (SMILES),CC50 at 72 h [1] [µM],EC50 [2] [µM],"EC50 [3, 10] [µM]",EC50 [4] [µM],antiviral activity against all four dengue serotypes [5],EC50 [6] [µM],formation of dengue virus plaques [7],inhibition of dengue infection in time-of-addition assay [8],"EC50 ([3]; Huh7.5, 96 h) [µM]",CC50 (in vitro) [µM],IC50 [9] [µM]
COc1ccc(CC(N)c2csc(Nc3ncccn3)n2)cc1 (stereo not shown) [CND1201],> 100,2.6,0.9,7.6,strong antiviral activities against all four dengue serotypes,5,–,–,–,–,–
NC(c1csc(Nc2ncccn2)n1)c1ccccc1Cl (stereo not shown) [CND1203],> 100,2.3,1.7,4.1,strong antiviral activities against all four dengue serotypes; also recorded: strong antiviral activity against all 4 dengue serotypes,5,blocked the formation of dengue virus plaques,none of the treatments inhibited dengue infection,–,–,–
Nc1ccc(CC(N)c2csc(Nc3ncccn3)n2)cc1 (stereo not shown) [CND1243],> 100,1,–,6.2,strong antiviral activities against all four dengue serotypes,7.2,–,–,4.1,–,–
NC(=O)c1ncn([C@@H]2O[C@H](CO)[C@@H](O)[C@H]2O)n1 [Ribavirin],–,–,–,–,–,–,–,–,–,50.4,42.4
